The values that follow come from US10308663B2, “Inhibitors of PTP4A3 for the treatment of cancer” (University of Virginia Patent Foundation, priority 2015, dated 2019).

Molecules are shown by their SMILES. Bounds are passed on as bounds.

In data set [1] the test system is A2780CP20 (Cisplatin resistant). Nature of the data set: Ovarian cancer cell drug susceptibility (Alamar blue), A2780CP20. It counts as cell-based, human. Particulars: 44 h + 4 h Alamar blue. (Alamar Blue is a resazurin reagent that responds to reducing activity.)
Data set [2] has as its system A2780CW (Cisplatin sensitive). Nature of the data set: Ovarian cancer cell drug susceptibility (Alamar blue), A2780CW. Format: cell-based, human. The settings on record: 44 h + 4 h Alamar blue.
In data set [3] the test system is SKOV3. Nature of the data set: Ovarian cancer cell drug susceptibility (Alamar blue), SKOV3. It counts as cell-based, human. The settings on record: 44 h + 4 h Alamar blue.
Data set [4] relates to OVCAR-4. Nature of the data set: Ovarian cancer cell drug susceptibility (Alamar blue), OVCAR-4. It counts as cell-based, human. The settings on record: 44 h + 4 h Alamar blue.
Data set [5] has as its target PTP-Tcell (Homo sapiens (Human), UniProt P17706). The settings on record: DiFMUP as a substrate; reported by Hoeger et al.; cited from earlier work.
Data set [6] deals with LARD1 (Homo sapiens (Human), UniProt P10586). Particulars: DiFMUP as a substrate; reported by Hoeger et al.; cited from earlier work.
For data set [7], the target named is PTPeD1 (Homo sapiens (Human), UniProt P23469). The settings on record: DiFMUP as a substrate; reported by Hoeger et al.; cited from earlier work.
For data set [8], the target named is PTP1B (Homo sapiens (Human), UniProt P18031). Particulars: DiFMUP as a substrate; reported by Hoeger et al.; cited from earlier work.
The target in data set [9] is PTPaD1 (Homo sapiens (Human), UniProt P18433). The settings on record: DiFMUP as a substrate; reported by Hoeger et al.; cited from earlier work.
Data set [10] relates to MsTuWT cells (Ptp4a3 wildtype). Nature of the data set: Cell adhesion assay (xCELLigence), MsTuWT. Format: cell-based, mouse. The settings on record: xCELLigence Cell Index.
Data set [11] has as its target PTPb cat (Homo sapiens (Human), UniProt P23467). The settings on record: DiFMUP as a substrate; reported by Hoeger et al.; cited from earlier work.
Data set [12] is described as follows: Spontaneous conversion of 5 to 6 under assay conditions. Format: physicochemical. Particulars: 90 min, in the presence or absence of DTT.
The target of data set [13] is HCP cat (Homo sapiens (Human), UniProt P29350). Particulars: DiFMUP as a substrate; reported by Hoeger et al.; cited from earlier work.
Data set [14] deals with SHP2 cat (Homo sapiens (Human), UniProt Q06124). Particulars: DiFMUP as a substrate; reported by Hoeger et al.; cited from earlier work.
Data set [15] has as its target CD45 (Homo sapiens (Human), UniProt P08575). The settings on record: DiFMUP as a substrate; reported by Hoeger et al.; cited from earlier work.
Data set [16] has as its target PTPgD1 (Homo sapiens (Human), UniProt P23470). The settings on record: DiFMUP as a substrate; reported by Hoeger et al.; cited from earlier work.

The term EC50 denotes the concentration at which the effect is half-maximal. In general, IC50 refers to the midpoint of a concentration-inhibition curve.

Chain of PTP-Tcell (P17706 whole entry): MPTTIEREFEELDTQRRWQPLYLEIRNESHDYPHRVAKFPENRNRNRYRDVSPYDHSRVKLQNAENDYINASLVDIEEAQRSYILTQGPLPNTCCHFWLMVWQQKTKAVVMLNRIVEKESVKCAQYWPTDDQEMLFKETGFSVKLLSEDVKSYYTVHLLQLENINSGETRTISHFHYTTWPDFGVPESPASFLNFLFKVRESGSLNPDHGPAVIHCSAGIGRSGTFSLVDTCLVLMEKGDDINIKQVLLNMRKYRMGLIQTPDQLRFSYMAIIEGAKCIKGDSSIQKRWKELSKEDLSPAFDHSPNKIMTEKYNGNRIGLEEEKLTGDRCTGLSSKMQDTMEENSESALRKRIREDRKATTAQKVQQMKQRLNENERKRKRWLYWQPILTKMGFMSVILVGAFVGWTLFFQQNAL
Chain of PTPaD1 (P18433 241-501): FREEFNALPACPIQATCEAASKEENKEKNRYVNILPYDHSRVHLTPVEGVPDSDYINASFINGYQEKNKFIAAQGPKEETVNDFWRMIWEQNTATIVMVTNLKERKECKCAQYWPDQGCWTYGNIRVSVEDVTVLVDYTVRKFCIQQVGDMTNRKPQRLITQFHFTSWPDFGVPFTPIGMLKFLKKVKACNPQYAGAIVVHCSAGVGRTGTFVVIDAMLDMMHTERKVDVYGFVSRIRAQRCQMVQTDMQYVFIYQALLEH
Chain of PTP1B (P18031 whole entry, species assumed): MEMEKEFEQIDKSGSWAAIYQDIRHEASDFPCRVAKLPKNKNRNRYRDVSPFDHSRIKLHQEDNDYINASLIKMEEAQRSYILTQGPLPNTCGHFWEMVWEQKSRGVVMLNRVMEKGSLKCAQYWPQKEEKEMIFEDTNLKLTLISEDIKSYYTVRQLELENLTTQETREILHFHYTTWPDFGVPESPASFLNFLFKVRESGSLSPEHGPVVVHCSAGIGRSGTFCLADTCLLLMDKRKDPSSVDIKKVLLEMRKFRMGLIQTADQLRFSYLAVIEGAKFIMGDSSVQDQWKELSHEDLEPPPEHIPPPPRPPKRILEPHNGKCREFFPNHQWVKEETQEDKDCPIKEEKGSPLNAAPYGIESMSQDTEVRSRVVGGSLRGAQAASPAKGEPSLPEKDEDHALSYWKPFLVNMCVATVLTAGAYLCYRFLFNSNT
Chain of CD45 (P08575 26-1306, species assumed): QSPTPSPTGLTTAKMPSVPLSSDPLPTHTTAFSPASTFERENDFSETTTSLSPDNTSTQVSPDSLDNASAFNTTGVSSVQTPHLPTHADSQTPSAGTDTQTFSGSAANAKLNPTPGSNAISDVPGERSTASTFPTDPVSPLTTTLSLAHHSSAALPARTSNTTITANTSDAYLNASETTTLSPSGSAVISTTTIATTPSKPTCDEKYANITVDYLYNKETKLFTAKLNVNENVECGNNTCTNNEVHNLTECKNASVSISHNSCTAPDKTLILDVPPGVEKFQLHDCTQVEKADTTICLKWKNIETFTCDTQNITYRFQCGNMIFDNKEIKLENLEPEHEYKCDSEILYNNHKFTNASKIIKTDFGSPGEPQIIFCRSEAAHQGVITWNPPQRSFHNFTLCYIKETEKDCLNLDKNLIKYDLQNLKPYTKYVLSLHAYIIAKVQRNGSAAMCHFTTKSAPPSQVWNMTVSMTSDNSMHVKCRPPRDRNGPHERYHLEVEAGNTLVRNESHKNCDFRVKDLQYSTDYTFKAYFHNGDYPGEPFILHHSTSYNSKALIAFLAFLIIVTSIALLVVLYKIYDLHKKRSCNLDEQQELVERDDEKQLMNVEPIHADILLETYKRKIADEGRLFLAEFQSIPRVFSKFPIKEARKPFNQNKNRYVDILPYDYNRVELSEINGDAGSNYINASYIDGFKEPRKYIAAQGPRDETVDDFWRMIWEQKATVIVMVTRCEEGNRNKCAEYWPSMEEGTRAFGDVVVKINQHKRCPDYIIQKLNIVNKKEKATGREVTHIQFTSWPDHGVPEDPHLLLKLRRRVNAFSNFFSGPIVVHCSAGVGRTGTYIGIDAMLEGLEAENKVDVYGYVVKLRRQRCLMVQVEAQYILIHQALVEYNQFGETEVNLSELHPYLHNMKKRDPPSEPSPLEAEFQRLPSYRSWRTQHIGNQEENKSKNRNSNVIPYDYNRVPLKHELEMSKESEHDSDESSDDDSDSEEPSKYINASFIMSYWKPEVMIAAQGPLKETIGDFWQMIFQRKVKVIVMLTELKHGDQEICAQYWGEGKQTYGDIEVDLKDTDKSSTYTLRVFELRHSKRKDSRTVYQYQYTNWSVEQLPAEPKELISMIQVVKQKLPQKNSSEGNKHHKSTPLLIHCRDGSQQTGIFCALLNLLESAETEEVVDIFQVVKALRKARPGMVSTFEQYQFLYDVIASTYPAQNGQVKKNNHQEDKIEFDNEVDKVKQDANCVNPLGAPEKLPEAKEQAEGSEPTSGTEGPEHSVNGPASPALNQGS
Chain of HCP cat (P29350 244-515): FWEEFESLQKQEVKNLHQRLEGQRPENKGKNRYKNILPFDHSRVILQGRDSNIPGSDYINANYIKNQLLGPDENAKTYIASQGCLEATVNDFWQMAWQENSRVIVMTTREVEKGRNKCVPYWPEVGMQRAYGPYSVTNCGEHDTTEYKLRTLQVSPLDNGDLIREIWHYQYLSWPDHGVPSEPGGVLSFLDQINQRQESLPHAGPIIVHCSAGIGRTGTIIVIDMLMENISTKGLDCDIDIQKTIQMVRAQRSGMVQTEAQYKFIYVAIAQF
Chain of PTPgD1 (P23470 848-1119): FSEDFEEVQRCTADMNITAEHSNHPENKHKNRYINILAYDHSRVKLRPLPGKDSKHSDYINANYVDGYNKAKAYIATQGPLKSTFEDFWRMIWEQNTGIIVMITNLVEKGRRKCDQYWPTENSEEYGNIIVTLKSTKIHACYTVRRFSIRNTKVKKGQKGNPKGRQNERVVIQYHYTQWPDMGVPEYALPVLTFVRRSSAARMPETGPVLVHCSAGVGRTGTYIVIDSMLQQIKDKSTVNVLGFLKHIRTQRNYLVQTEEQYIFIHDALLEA
Chain of PTPeD1 (P23469 135-394): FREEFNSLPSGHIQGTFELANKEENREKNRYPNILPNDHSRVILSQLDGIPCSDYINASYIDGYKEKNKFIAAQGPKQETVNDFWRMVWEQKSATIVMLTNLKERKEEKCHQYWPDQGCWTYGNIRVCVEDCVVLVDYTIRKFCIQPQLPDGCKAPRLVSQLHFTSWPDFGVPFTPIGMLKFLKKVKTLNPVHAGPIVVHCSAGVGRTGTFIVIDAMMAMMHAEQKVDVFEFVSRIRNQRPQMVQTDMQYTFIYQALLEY
Chain of LARD1 (P10586 1352-1607): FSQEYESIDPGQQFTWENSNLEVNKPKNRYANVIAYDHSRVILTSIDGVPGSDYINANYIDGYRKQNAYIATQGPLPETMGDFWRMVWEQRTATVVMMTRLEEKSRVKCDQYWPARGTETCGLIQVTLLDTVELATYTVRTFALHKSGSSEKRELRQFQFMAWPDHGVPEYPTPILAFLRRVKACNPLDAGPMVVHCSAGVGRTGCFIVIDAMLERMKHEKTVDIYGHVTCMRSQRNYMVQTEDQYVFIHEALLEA
Chain of SHP2 cat (Q06124 247-517): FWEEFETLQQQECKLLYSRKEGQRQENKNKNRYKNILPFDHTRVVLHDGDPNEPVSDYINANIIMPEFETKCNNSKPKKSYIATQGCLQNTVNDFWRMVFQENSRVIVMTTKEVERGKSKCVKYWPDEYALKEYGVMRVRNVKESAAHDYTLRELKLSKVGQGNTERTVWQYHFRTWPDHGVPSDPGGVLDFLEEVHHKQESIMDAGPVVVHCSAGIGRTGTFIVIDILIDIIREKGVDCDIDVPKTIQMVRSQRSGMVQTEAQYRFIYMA
Chain of PTPb cat (P23467 1703-1963): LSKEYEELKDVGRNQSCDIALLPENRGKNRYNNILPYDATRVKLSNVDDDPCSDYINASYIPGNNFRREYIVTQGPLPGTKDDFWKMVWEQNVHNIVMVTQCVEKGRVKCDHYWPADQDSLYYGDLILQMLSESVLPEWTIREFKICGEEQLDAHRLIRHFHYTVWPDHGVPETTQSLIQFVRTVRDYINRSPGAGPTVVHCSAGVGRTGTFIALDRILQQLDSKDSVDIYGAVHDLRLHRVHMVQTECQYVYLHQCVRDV

Take `O=C1NC(=S)S/C1=C/c1cc(Br)ccc1OCc1ccccc1Br` [BR-1]: the EC50 in data set [1] (Homo sapiens) is 17.3 ± 2 µM; in data set [2] (Homo sapiens), 26.4 ± 1 µM; in data set [3] (Homo sapiens, SK-OV-3) it was 48.3 ± 9.1 µM; in data set [4] (Homo sapiens, OVCAR-4), 48.5 ± 7.9 µM.
Turning to `N.N.[Cl][Pt][Cl]` [Cisplatin], the EC50 in data set [1] was over 100 µM; in data set [2], 3.7 ± 1.8 µM; in data set [3], over 100 µM; in data set [4] it was 30.3 ± 4.4 µM.
In the case of `O=c1[nH]c(=O)c2cc(-c3ccccc3)sc2[nH]1` [JMS-557-038], the EC50 in data set [1] (Homo sapiens) is over 50 µM; in data set [2] (Homo sapiens), over 50 µM; in data set [3] (Homo sapiens, SK-OV-3), over 50 µM; in data set [4] (Homo sapiens, OVCAR-4) it was over 50 µM.
For `Nc1c[nH]c(=O)c2cc(-c3ccccc3)sc12` [Thienopyridone (5), 7-amino-2-phenylthieno[3,2-c]pyridin-4(5H)-one], the IC50 in data set [5] was over 100 µM; in data set [6] it was over 100 µM; in [7], over 100 µM; in [8], over 100 µM; in data set [9], over 100 µM; in data set [11], 67 µM. Moreover, the IC50 in data set [13] was 71 µM; in data set [14], over 100 µM; in data set [15], over 100 µM; in data set [16], over 100 µM. The EC50 in [1] (Homo sapiens) was determined as 13.1 ± 6 µM; in data set [2] (Homo sapiens), 4.5 ± 0.6 µM; in data set [3] (Homo sapiens, SK-OV-3), 28.8 ± 2.2 µM; in data set [4] (Homo sapiens, OVCAR-4) it was 15.5 ± 2.4 µM. The MsTuWT adherence entry in [10] was “inhibited”. The “spontaneous conversion of 5 to 6” value in [12] is recorded as “not detect quantifiable (>5%) spontaneous conversion”.
